The supplement of paper PMC11061612

Columns and labels:
Assay in all cases: combination Emax (second highest fraction inhibited in the dose matrix, 72 h); higher = more inhibition; extreme values may be limits of the assay
[1] = tested on: JHH-2 (Hepatocellular Carcinoma)
In short: (§1)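 Cell lines grown in DMEM/F12 or RPMI with 10% FBS were plated in 1536-well plates and held 24 hours at 37°C, 5% CO2 before 72 hours of exposure to two-drug dose matrices, with DMSO typically at 0.2%. CellTiter-Glo 2.0 luminescence gave viability, which was converted to inhibition. Vehicle wells were set to 0 and blank wells to 1. Combination Emax is the second-highest inhibition in the matrix, and Bliss excess is the observed combination effect minus the expected EA + EB − EA·EB, where EA and EB are the single-agent effects.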

[2] = tested on: NCI-H441 (Lung Adenocarcinoma)
In short: as §1

[3] = tested on: MDA-MB-436 (Breast Carcinoma)
In short: as §1

EB2 (Burkitt's Lymphoma) = tested on: EB2 (Burkitt's Lymphoma)
In short: as §1

[4] = tested on: LU-165 (Small Cell Lung Carcinoma)
In short: as §1

[5] = tested on: CGTH-W-1 (Thyroid Gland Carcinoma)
In short: as §1

[6] = tested on: LS-411N (Colorectal Carcinoma)
In short: as §1

[7] = tested on: KYSE-140 (Esophageal Squamous Cell Carcinoma)
In short: as §1

[8] = tested on: A2780 (Ovarian Carcinoma)
In short: as §1

[9] = tested on: HCC1395 (Breast Carcinoma)
In short: as §1

RH-41 (Rhabdomyosarcoma) = tested on: RH-41 (Rhabdomyosarcoma)
In short: as §1

[10] = tested on: MHH-ES-1 (Ewing's Sarcoma)
In short: as §1

[11] = tested on: CESS (Acute Myeloid Leukemia)
In short: as §1

[12] = tested on: SK-HEP-1 (Hepatocellular Carcinoma)
In short: as §1

[13] = tested on: CA46 (Burkitt's Lymphoma)
In short: as §1

[14] = tested on: GCT (Other Solid Carcinomas)
In short: as §1

[15] = tested on: GA-10 (Burkitt's Lymphoma)
In short: as §1

[16] = tested on: SW620 (Colorectal Carcinoma)
In short: as §1

HCC70 (Breast Carcinoma) = tested on: HCC70 (Breast Carcinoma)
In short: as §1

[17] = tested on: G-402 (Other Solid Carcinomas)
In short: as §1

For `Cn1cnc2c(F)c(Nc3ccc(Br)cc3Cl)c(C(=O)NOCCO)cc21` [Selumetinib] + CCN(CCO)CCCOc1ccc2c(Nc3cc(CC(=O)Nc4cccc(F)c4)[nH]n3)ncnc2c1 [AZD2811] (first compound max 10 µM, 7x7, partner max 1 µM), the “combination Emax” value [1] was 0.325, the “combination Emax” value [2] was 0.304 and the “combination Emax” value [3] was 0.264. The “combination Emax” value (EB2 (Burkitt's Lymphoma)) was 0.182, the “combination Emax” value [4] was 0.158 and the “combination Emax” value [5] was 0.125. For the same compound, the “combination Emax” value [6] was 0.786, the “combination Emax” value [7] was 0.294 and the “combination Emax” value [8] was 0.702. For the same compound, the “combination Emax” value [9] was 0.212, the “combination Emax” value (RH-41 (Rhabdomyosarcoma)) was 0.309 and the “combination Emax” value [10] was 0.609. For the same compound, the “combination Emax” value [11] was 0.423, the “combination Emax” value [12] was 0.362 and the “combination Emax” value [13] was 0.312. The “combination Emax” value [14] was 0.384, the “combination Emax” value [15] was 0.7 and the “combination Emax” value [16] was 0.863. The “combination Emax” value (HCC70 (Breast Carcinoma)) was 0.603 and the “combination Emax” value [17] was 0.578.
With `Cn1cnc2c(F)c(Nc3ccc(Br)cc3Cl)c(C(=O)NOCCO)cc21` [Selumetinib] + C[C@@H]1COCCN1C2=NC(=NC(=C2)C3(CC3)[S@](=N)(=O)C)C4=C5C=CNC5=NC=C4 [AZD6738] (first compound max 10 µM, 7x7, partner max 10 µM) the “combination Emax” value [1] was 0.641, the “combination Emax” value [2] was 0.36 and the “combination Emax” value [3] was 0.243. For the same compound, the “combination Emax” value (EB2 (Burkitt's Lymphoma)) was 0.755, the “combination Emax” value [4] was 0.304 and the “combination Emax” value [5] was 0.162. For the same compound, the “combination Emax” value [6] was 0.808, the “combination Emax” value [7] was 0.786 and the “combination Emax” value [8] was 0.829. The “combination Emax” value [9] was 0.571, the “combination Emax” value (RH-41 (Rhabdomyosarcoma)) was 0.736 and the “combination Emax” value [10] was 0.525. For the same compound, the “combination Emax” value [11] was 0.815, the “combination Emax” value [12] was 0.223 and the “combination Emax” value [13] was 0.579. The “combination Emax” value [14] was 0.373, the “combination Emax” value [15] was 0.977 and the “combination Emax” value [16] was 0.781. For the same compound, the “combination Emax” value (HCC70 (Breast Carcinoma)) was 0.778 and the “combination Emax” value [17] was 0.645.
In the case of `CC(=O)Nc1cccc(-n2c(=O)n(C3CC3)c(=O)c3c(Nc4ccc(I)cc4F)n(C)c(=O)c(C)c32)c1` [Trametinib] + Cc1nc(-c2cn3c(n2)-c2ccc(-c4cnn(C(C)(C)C(N)=O)c4)cc2OCC3)n(C(C)C)n1 [Taselisib] (first compound max 1 µM, 7x7, partner max 10 µM), the “combination Emax” value [1] is reported as 1, the “combination Emax” value [2] is reported as 0.639 and the “combination Emax” value [3] is reported as 0.527. The “combination Emax” value (EB2 (Burkitt's Lymphoma)) was 0.593, the “combination Emax” value [4] was 0.373 and the “combination Emax” value [5] was 0.99. For the same compound, the “combination Emax” value [6] was 0.946, the “combination Emax” value [7] was 0.817 and the “combination Emax” value [8] was 0.972. For the same compound, the “combination Emax” value [9] was 0.654, the “combination Emax” value (RH-41 (Rhabdomyosarcoma)) was 1 and the “combination Emax” value [10] was 0.563. The “combination Emax” value [11] was 0.66, the “combination Emax” value [12] was 0.561 and the “combination Emax” value [13] was 0.434. For the same compound, the “combination Emax” value [14] was 0.764, the “combination Emax” value [15] was 0.682 and the “combination Emax” value [16] was 0.77. The “combination Emax” value (HCC70 (Breast Carcinoma)) was 1 and the “combination Emax” value [17] was 0.792.
`CC1(C)CCC(CN2CCN(c3ccc(C(=O)NS(=O)(=O)c4ccc(NCC5CCOCC5)c([N+](=O)[O-])c4)c(Oc4cnc5[nH]ccc5c4)c3)CC2)=C(c2ccc(Cl)cc2)C1` [Venetoclax] + C1CN(CCC1(C(=O)N[C@@H](CCO)C2=CC=C(C=C2)Cl)N)C3=NC=NC4=C3C=CN4 [Capivasertib] (first compound max 1 µM, 7x7, partner max 3 µM) was tested, and the “combination Emax” value [1] was 0.625, the “combination Emax” value [2] was 0.326 and the “combination Emax” value [3] was 0.163. For the same compound, the “combination Emax” value (EB2 (Burkitt's Lymphoma)) was 0.795, the “combination Emax” value [4] was 0.269 and the “combination Emax” value [5] was 0.215. The “combination Emax” value [6] was 0.305, the “combination Emax” value [7] was 0.669 and the “combination Emax” value [8] was 0.61. For the same compound, the “combination Emax” value [9] was 0.662, the “combination Emax” value (RH-41 (Rhabdomyosarcoma)) was 0.945 and the “combination Emax” value [10] was 0.323. For the same compound, the “combination Emax” value [11] was 0.467, the “combination Emax” value [12] was 0.168 and the “combination Emax” value [13] was 0.112. For the same compound, the “combination Emax” value [14] was 0.426, the “combination Emax” value [15] was 0.584 and the “combination Emax” value [16] was 0.151. For the same compound, the “combination Emax” value (HCC70 (Breast Carcinoma)) was 0.686 and the “combination Emax” value [17] was 0.425.
For `CC1(C)CCC(CN2CCN(c3ccc(C(=O)NS(=O)(=O)c4ccc(NCC5CCOCC5)c([N+](=O)[O-])c4)c(Oc4cnc5[nH]ccc5c4)c3)CC2)=C(c2ccc(Cl)cc2)C1` [Venetoclax] + C=CCn1c(=O)c2cnc(Nc3ccc(N4CCN(C)CC4)cc3)nc2n1-c1cccc(C(C)(C)O)n1 [AZD1775] (first compound max 1 µM, partner max 1 µM), the “combination Emax” value [1] was 0.882, the “combination Emax” value [2] was 0.489 and the “combination Emax” value [3] was 0.231. The “combination Emax” value (EB2 (Burkitt's Lymphoma)) was 0.932, the “combination Emax” value [4] was 0.364 and the “combination Emax” value [5] was 0.377. The “combination Emax” value [6] was 0.55, the “combination Emax” value [7] was 0.814 and the “combination Emax” value [8] was 0.927. For the same compound, the “combination Emax” value [9] was 0.81, the “combination Emax” value (RH-41 (Rhabdomyosarcoma)) was 1 and the “combination Emax” value [10] was 0.776. The “combination Emax” value [11] was 0.966, the “combination Emax” value [12] was 0.34 and the “combination Emax” value [13] was 0.738. The “combination Emax” value [14] was 0.431, the “combination Emax” value [15] was 1 and the “combination Emax” value [16] was 0.51. The “combination Emax” value (HCC70 (Breast Carcinoma)) was 0.805 and the “combination Emax” value [17] was 0.435.
In the case of `CC1(C)CCC(CN2CCN(c3ccc(C(=O)NS(=O)(=O)c4ccc(NCC5CCOCC5)c([N+](=O)[O-])c4)c(Oc4cnc5[nH]ccc5c4)c3)CC2)=C(c2ccc(Cl)cc2)C1` [Venetoclax] + CCN(CCO)CCCOc1ccc2c(Nc3cc(CC(=O)Nc4cccc(F)c4)[nH]n3)ncnc2c1 [AZD2811] (first compound max 1 µM, 7x7, partner max 1 µM), the “combination Emax” value [1] is reported as 0.27, the “combination Emax” value [2] is reported as 0.365 and the “combination Emax” value [3] is reported as 0.127. The “combination Emax” value (EB2 (Burkitt's Lymphoma)) was 0.677, the “combination Emax” value [4] was 0.161 and the “combination Emax” value [5] was 0.272. For the same compound, the “combination Emax” value [6] was 0.0756, the “combination Emax” value [7] was 0.367 and the “combination Emax” value [8] was 0.472. The “combination Emax” value [9] was 0.639, the “combination Emax” value (RH-41 (Rhabdomyosarcoma)) was 0.418 and the “combination Emax” value [10] was 0.657. For the same compound, the “combination Emax” value [11] was 0.615, the “combination Emax” value [12] was 0.27 and the “combination Emax” value [13] was 0.0318. For the same compound, the “combination Emax” value [14] was 0.273, the “combination Emax” value [15] was 0.598 and the “combination Emax” value [16] was 0.229. The “combination Emax” value (HCC70 (Breast Carcinoma)) was 0.616 and the “combination Emax” value [17] was 0.667.
